This is an account of results in PubChem BioAssay AID623878 (Vanderbilt Specialized Chemistry Center, 2012).

In the test the target is Metabotropic glutamate receptor 2 (Rattus norvegicus) (UniProt P31421). The test is described as follows: glutamate response shift at rat mGlu2 – cell-based, thallium flux, glutamate fold shift, selectivity assay for mGlu4 PAM project, SAR follow-up (AID 623878). The settings on record: rat mGlu2 cells, at 10 µM.

Molecules are shown by their SMILES. Activity calls are given as the source filed them.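 How the source made its calls: active means glutamate fold shift at least 2 as enhancer, or at most 0.5 as blocker, actives on both sides; inactive means the rest.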

Sequence of Metabotropic glutamate receptor 2 (Rattus norvegicus) (P31421 whole entry, looked up): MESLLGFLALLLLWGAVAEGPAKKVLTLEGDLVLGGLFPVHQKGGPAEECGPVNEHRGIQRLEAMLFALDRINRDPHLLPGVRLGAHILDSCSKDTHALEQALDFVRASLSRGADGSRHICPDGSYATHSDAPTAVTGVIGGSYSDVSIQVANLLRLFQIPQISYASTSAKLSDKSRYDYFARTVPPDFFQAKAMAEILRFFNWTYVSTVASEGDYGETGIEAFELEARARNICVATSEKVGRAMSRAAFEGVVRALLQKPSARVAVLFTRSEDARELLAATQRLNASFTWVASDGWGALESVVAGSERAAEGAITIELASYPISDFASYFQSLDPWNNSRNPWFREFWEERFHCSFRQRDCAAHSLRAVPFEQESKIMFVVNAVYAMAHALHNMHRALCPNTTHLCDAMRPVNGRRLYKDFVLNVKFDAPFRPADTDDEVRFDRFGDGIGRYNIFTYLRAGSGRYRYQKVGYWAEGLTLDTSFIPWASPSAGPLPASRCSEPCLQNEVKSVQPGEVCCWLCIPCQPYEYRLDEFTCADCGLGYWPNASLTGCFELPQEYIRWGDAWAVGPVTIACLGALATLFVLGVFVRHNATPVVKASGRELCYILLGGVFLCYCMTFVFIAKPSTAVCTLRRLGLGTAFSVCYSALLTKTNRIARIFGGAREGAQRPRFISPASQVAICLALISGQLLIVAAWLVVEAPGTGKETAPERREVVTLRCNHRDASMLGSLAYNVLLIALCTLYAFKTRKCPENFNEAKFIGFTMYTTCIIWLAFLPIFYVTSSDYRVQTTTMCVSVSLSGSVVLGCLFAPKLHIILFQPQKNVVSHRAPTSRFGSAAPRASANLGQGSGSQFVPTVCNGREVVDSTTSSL

On to `O=C(Nc1cccc(Cl)c1)c1ccccn1`, for which the fold shift is 0.98 (inactive).
